From patent publication US20100093760A1, “METHODS FOR IDENTIFYING COMPOUNDS THAT MODULATE CELL SIGNALING AND METHODS EMPLOYING SUCH COMPOUNDS” (The General Hospital Corporation, priority 2006, published 2010)
“Also recorded” adds a separate entry of the source.

Key:
[1] = system: Activin A-mediated activation of SMAD2; assay: Activin A-mediated SMAD2 phosphorylation in PASMCs; assay type: cell-based, murine; conditions: Activin A 80 ng/ml
Experimental: (§1) Wild-type and BMPR-II-deficient PASMC were isolated as previously described (Yu et al., J. Biol. Chem. 280:24443-24450, 2005), and cultured in RPMI medium (Invitrogen) supplemented with 10% FBS. C2C12 cells (American Type Culture Collection, Manassas, Va.) were cultured in DMEM supplemented with glutamine and 10% FBS. HepG2 cells and Hep3B cells (ATCC) were cultured in Minimal Essential Alpha Medium with L-glutamine (α-MEM, Invitrogen) containing 10% FBS. For studies of SMAD activation in vitro, PASMC were incubated in 0.5% FCS RPMI for 24 hours, followed by preincubation with drug compounds, noggin, or vehicle for 30 minutes, followed the addition of recombinant BMPs 2, 4, 6, or 7, or TGF-β1 or Activin A (R&D Systems, Minneapolis, Minn.) for 30 minutes.
(§2) Cell extracts or tissues were mechanically homogenized in SDS-lysis buffer (62.5 mM Tris-HCl (pH 6.8), 2% SDS, 10% glycerol, 50 mM DTT, 0.01% bromophenol blue); separated by SDS-PAGE; immunoblotted with anti-phospho-SMAD1/5/8, anti-phospho-SMAD2 (Cell Signaling, Beverly, Mass.), or anti-α-tubulin (Upstate/Millipore, Billerica, Mass.) Abs; and visualized using ECL Plus (GE Healthcare, Piscataway, N.J.). Levels of immunoreactive proteins were quantitated by ImageQuant software on a Storm phosphorimager (GE Healthcare).

[2] = system: TGF-β1-mediated activation of SMAD2; assay: TGF-β1-mediated SMAD2 phosphorylation in PASMCs; assay type: cell-based, murine
Experimental: as §1, §2

caALK5 = target: T1, caALK5 (Homo sapiens, UniProt P36897, T204D); assay: Constitutively-active ALK5 PAI-1 promoter reporter (CAGA-Luc); assay type: cell-based; conditions: PASMCs, up to 20 μM
T1 construct: expressed in transfected cells; host or cells: murine PASMCs, transient transfection
T1 sequence (P36897 34-503 T204D): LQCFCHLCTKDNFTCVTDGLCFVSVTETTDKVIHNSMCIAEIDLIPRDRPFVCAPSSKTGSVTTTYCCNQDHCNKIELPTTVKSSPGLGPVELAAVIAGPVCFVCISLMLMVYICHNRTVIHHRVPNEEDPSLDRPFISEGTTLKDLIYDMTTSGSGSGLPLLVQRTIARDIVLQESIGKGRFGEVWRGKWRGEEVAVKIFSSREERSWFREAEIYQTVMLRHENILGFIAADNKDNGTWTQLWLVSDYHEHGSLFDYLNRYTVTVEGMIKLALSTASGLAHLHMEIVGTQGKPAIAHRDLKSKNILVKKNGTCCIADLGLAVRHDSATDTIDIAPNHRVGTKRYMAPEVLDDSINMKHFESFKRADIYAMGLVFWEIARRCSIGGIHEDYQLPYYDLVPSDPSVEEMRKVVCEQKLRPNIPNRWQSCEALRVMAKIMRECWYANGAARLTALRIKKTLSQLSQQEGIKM
Experimental: (§3) Murine PASMCs grown to 50% confluence in 6-well plates were transiently transfected with 0.3 μg Id1 promoter luciferase reporter construct (BRE-Luc, Dr. Peter ten Dijke, Leiden University Medical Center, Netherlands (Korchynskyi et al., J. Biol. Chem. 277:4883-4891, 2002)) in combination with 0.6 μg plasmids expressing constitutively-active forms of BMP type I receptors (caALK2, caALK3, or caALK6, kindly provided by Dr. Kohei Miyazono, University of Tokyo, Japan (Fujii et al., Mol. Biol. Cell 10:3801-3813, 1999)), using Fugene6 (Roche). To assess Activin and […] type I receptor function, PASMCs were transiently transfected with 0.3 μg PAI-1 promoter luciferase reporter construct (CAGA-Luc, Dr. Peter ten Dijke (Dennler et al., Embo J. 17:3091-3100, 1998)) in combination with 0.6 μg plasmids expressing constitutively active forms of type I receptors (caALK4, caALK5, and caALK7, also provided by Dr. Kohei Miyazono (Okadome et al., J. Biol. Chem. 271:21687-21690, 1996; Shimizu et al., Genes Cells 3:125-134, 1998)). For both reporters, 0.2 μg pRL-TK Renilla luciferase (Promega) was used to control for transfection efficiency. […] Cell extracts were harvested, and relative promoter activity quantitated by the ratio of firefly to Renilla luciferase activity using the dual luciferase assay kit (Promega). […] Hepcidin promoter activity was measured by luciferase assay as above.

caALK7 = assay: Constitutively-active ALK7 PAI-1 promoter reporter (CAGA-Luc); assay type: cell-based; conditions: PASMCs, up to 20 μM
Experimental: as §3

[3] = system: PI-3 kinase, JAK, STAT, PKA, PKC, and various other pathways; conditions: previous reports; cited from earlier work
[4] = system: hepatic SMAD1/5/8 phosphorylation; assay: Iron-dextran challenge: hepatic SMAD1/5/8 phosphorylation in mice; assay type: in vivo, C57BL/6 mice; conditions: 10 mg/kg co-injected with iron-dextran, intravenous, 1 hour
hepcidin promoter = assay: Hepcidin promoter luciferase reporter assay (Hep-Luc) in Hep3B cells; assay type: cell-based
Experimental: as §3

[5] = system: hepcidin (HAMP) and Id1 mRNA; assay: Hepcidin and Id1 mRNA qRT-PCR in Hep3B cells; assay type: cell-based, human
Experimental: Quantitative RT-PCR was performed for mRNA encoding Id1 or human hepcidin (HAMP) as previously described (Babitt et al., Nat. Genet. 38:531-539, 2006; Yu et al., J. Biol. Chem. 280:24443-24450, 2005), and normalized to 18S ribosomal RNA (rRNA) or β-actin mRNA levels.

[6] = system: hepatic SMAD1/5/8 phosphorylation; assay: Iron-dextran challenge: hepatic SMAD1/5/8 phosphorylation in adult zebrafish; assay type: in vivo; parameters: dose or concentration left out as unconfirmed; conditions: co-injection with iron-dextran, intraperitoneal, 1 hour
caALK3 = target: T2, caALK3 (Homo sapiens, UniProt P36894, Q233D); assay: Constitutively-active ALK3 transfection: phospho-SMAD1/5/8 immunoblot and Id1 promoter (BRE-Luc); assay type: cell-based; conditions: BMPR-II-deficient PASMCs
T2 construct: expressed in transfected cells; host or cells: murine PASMCs (BMPR-II-deficient), transient transfection
T2 sequence (P36894 24-532 Q233D): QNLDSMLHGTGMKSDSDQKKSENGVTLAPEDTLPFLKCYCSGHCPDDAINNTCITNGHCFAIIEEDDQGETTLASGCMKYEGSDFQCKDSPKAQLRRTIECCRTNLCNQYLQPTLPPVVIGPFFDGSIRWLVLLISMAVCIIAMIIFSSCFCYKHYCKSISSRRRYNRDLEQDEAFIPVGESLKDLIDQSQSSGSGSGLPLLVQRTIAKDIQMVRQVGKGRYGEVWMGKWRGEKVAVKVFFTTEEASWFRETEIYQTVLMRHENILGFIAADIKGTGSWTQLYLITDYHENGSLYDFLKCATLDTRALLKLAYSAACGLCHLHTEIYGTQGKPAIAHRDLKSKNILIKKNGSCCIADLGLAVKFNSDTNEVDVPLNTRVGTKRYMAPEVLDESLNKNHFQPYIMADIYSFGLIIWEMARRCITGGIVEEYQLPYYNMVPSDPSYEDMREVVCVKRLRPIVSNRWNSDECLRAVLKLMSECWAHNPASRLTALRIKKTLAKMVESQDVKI
Experimental: as §2
Murine PASMCs grown to 50% confluence in 6-well plates were transiently transfected with 0.3 μg Id1 promoter luciferase reporter construct (BRE-Luc, Dr. Peter ten Dijke, Leiden University Medical Center, Netherlands (Korchynskyi et al., J. Biol. Chem. 277:4883-4891, 2002)) in combination with 0.6 μg plasmids expressing constitutively-active forms of BMP type I receptors (caALK2, caALK3, or caALK6, kindly provided by Dr. Kohei Miyazono, University of Tokyo, Japan (Fujii et al., Mol. Biol. Cell 10:3801-3813, 1999)), using Fugene6 (Roche). […] Cell extracts were harvested, and relative promoter activity quantitated by the ratio of firefly to Renilla luciferase activity using the dual luciferase assay kit (Promega). […] Hepcidin promoter activity was measured by luciferase assay as above.

[7] = system: BMP-mediated SMAD1/5/8 activation in BMPR-II-deficient PASMCs; assay: BMP-induced SMAD1/5/8 activation in BMPR-II-deficient PASMCs; assay type: cell-based, murine
Experimental: as §1, §2

[8] = mice, 10 to 30 mg/kg each day (Kim et al. 2004); cited from earlier work
zebrafish hepcidin mRNA = assay: Iron-dextran challenge: hepatic hepcidin mRNA in adult zebrafish; assay type: in vivo; conditions: 23 μg/g co-injected with iron-dextran, 3 hours

c1cc(-c2cnn3cc(-c4ccc(OCCN5CCCCC5)cc4)cnc23)ccn1 [Compound C/Dorsomorphin]
effect on Activin A-mediated activation of SMAD2 [1]: did not inhibit; also recorded: only modestly at concentrations ≧10 μM
effect on the TGF-β signaling pathway ([2]; FIG. 7): does not affect
effect on TGF-β1-mediated activation of SMAD2 ([2]; PASMCs, TGF-β1 0.5 ng/ml, 0.1-20 μM, 30 minutes): did not inhibit
effect on caALK5-mediated PAI-1 promoter activity (CAGA-Luc) (caALK5): did not inhibit; also recorded: not decreased
effect on caALK7-mediated PAI-1 promoter activity (CAGA-Luc) (caALK7): did not inhibit; also recorded: not decreased
inhibition of activation of PI-3 kinase, JAK, STAT, PKA, PKC, and various other pathways [3]: does not exhibit significant inhibition
effect on iron-mediated increase in hepatic SMAD1/5/8 phosphorylation [4]: abolished; also recorded: did not exhibit an increase
effect on HJV-induced hepcidin promoter activity (Hep-Luc) (hepcidin promoter; Hep3B cells transfected with HJV): effectively abrogated; also recorded: blocked
effect on BMP2-induced hepcidin promoter activity (Hep-Luc) (hepcidin promoter; Hep3B cells, 10 μM, BMP2 25 ng/ml): effectively abrogated
Id1 mRNA, alone or in combination with IL-6 ([5]; 4 μM, IL-6 100 ng/ml, 6 hours): blocked; also recorded: below basal levels
hepcidin mRNA, alone or in combination with IL-6 ([5]; 4 μM, IL-6 100 ng/ml, 6 hours): blocked; also recorded: below basal levels
lowering of baseline hepcidin expression ([5]; DM 4 μM alone): 27%
effect on BMP4-induced hepcidin mRNA expression ([5]; DM 4 μM pretreatment, BMP4 20 ng/ml): completely abrogated
reduction of hepatic SMAD1/5/8 phosphorylation vs iron-dextran and vehicle [6]: ~3 fold
effect on caALK3-induced increase in phospho-SMAD1/5/8 (caALK3; 10 μM, immunoblot): inhibited
effect on caALK3-mediated Id1 promoter activity (BRE-Luc) (caALK3; 0.25-10 μM): inhibited; also recorded: decreased
effect on activation of SMAD1/5/8 by BMPs 2, 4, 6, and 7 ([7]; BMPR-II-deficient PASMCs, 4 μM, BMPs 10 ng/ml, 30 minutes): inhibited
effect on activity of BMPs 2, 4, 6, 7, and 9 ([7]; wild type and BMP type II receptor knockout cells): effectively inhibits
tolerability [8]: without obvious toxicity
effect on iron-dextran-induced hepatic hepcidin mRNA (zebrafish hepcidin mRNA): inhibited the increase; also recorded: not significantly different from dextran-treated fish
